Source: patent US8673906B2, “Chromenone derivatives” (AstraZeneca AB, priority 2010, dated 2014)

biological target: PI3Kβ (Homo sapiens (Human), UniProt P42338); assay: In vitro enzyme inhibition assay (Kinase Glo based enzyme activity assay); assay type: biochemical; details: Test (a), human recombinant enzyme; read-out: PI3Kβ inhibition, IC50
Procedure, shortened: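 ATP depletion by recombinant human PI3Kβ measured with Kinase-Glo luminescence after an 80 min reaction (final 80 μM ATP, 80 μM PIP2, 1% DMSO) in Tris pH 7.4 buffer with CHAPS, DTT and MgCl2, following 20 min enzyme–compound preincubation. Twelve concentrations fitted by non-linear regression for IC50.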

Chain of PI3Kβ (P42338 whole entry): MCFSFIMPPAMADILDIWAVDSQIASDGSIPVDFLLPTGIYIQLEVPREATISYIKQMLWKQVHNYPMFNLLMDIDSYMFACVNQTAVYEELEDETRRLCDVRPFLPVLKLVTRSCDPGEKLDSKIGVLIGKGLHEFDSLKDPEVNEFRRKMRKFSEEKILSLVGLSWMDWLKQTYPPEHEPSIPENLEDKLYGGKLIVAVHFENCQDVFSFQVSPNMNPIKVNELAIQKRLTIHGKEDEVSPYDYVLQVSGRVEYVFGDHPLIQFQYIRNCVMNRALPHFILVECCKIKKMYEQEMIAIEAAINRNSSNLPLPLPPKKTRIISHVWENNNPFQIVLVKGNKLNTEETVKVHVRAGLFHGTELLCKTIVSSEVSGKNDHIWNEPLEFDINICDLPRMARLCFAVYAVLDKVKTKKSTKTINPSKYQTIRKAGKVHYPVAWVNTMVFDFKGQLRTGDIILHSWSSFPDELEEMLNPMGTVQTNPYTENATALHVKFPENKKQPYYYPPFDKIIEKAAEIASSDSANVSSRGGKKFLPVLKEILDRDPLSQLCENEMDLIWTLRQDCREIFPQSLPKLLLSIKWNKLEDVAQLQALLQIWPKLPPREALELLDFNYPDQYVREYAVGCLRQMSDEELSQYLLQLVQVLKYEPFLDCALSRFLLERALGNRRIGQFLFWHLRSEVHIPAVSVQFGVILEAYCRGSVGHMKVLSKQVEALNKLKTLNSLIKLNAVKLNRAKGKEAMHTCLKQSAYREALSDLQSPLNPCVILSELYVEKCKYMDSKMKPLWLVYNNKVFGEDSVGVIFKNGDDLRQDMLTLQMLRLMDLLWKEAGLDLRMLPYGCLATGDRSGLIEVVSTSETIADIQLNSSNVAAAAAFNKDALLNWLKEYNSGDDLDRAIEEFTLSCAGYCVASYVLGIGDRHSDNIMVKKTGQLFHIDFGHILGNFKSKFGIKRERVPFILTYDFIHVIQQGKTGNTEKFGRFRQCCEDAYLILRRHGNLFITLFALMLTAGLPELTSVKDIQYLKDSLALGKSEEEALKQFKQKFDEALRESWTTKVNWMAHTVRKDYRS
Chain of PI3Kβ (P27986 whole entry partner): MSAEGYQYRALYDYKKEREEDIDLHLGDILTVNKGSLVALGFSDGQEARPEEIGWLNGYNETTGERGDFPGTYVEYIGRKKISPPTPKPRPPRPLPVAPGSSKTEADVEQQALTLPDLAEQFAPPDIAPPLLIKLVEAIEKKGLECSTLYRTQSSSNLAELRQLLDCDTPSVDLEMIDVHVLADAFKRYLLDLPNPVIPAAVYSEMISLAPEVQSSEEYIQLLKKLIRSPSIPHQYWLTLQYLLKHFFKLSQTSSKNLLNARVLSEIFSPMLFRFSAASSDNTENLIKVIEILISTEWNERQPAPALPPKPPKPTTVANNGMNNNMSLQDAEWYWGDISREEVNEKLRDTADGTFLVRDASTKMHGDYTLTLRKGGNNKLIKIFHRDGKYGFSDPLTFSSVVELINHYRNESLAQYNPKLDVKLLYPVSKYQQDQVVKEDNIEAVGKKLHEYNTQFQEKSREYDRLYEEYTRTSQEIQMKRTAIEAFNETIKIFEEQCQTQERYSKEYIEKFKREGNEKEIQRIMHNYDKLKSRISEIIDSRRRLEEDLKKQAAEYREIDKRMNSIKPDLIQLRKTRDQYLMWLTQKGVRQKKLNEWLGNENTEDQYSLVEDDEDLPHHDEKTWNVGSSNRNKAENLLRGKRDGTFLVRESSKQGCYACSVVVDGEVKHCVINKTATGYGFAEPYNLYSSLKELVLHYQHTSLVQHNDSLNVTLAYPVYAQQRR

| Compound | IC50 [nM] |
| --- | --- |
| CC(Nc1cc(F)cc(F)c1)c1cc(C(=O)NCCF)cc2c(=O)cc(N3CCOCC3)oc12 (centres unmarked) [Example 4.18, 8-(1-(3,5-difluorophenylamino)ethyl)-N-(2-fluoroethyl)-2-morpholino-4-oxo-4H-chromene-6-carboxamide] | 4 |
| COCCCNC(=O)c1cc(C(C)Nc2cc(F)cc(F)c2)c2oc(N3CCOCC3)cc(=O)c2c1 (centres unmarked) [Example 4.19, 8-(1-(3,5-difluorophenylamino)ethyl)-N-(3-methoxypropyl)-2-morpholino-4-oxo-4H-chromene-6-carboxamide] | 23 |
| CC(Nc1cc(F)cc(F)c1)c1cc(C(=O)N2CCC[C@@H]2CO)cc2c(=O)cc(N3CCOCC3)oc12 (stereo partly drawn) [Example 4.20, 8-(1-(3,5-difluorophenylamino)ethyl)-6-((R)-2-(hydroxymethyl)pyrrolidine-1-carbonyl)-2-morpholino-4H-chromen-4-one] | 5 |
| CC(Nc1cc(F)cc(F)c1)c1cc(C(=O)N2CCC[C@H]2CO)cc2c(=O)cc(N3CCOCC3)oc12 (stereo partly drawn) [Example 4.21, 8-(1-(3,5-difluorophenylamino)ethyl)-6-((S)-2-(hydroxymethyl)pyrrolidine-1-carbonyl)-2-morpholino-4H-chromen-4-one] | 4 |
| CNC(=O)c1cc(C(C)Nc2cc(F)cc(F)c2)c2oc(N3CCOCC3)cc(=O)c2c1 (centres unmarked) [Example 4.22, 8-(1-(3,5-difluorophenylamino)ethyl)-N-methyl-2-morpholino-4-oxo-4H-chromene-6-carboxamide] | 4 |
| CC(Nc1cc(F)cc(F)c1)c1cc(C(=O)NCC2CC2)cc2c(=O)cc(N3CCOCC3)oc12 (centres unmarked) [Example 4.23, N-(cyclopropylmethyl)-8-(1-(3,5-difluorophenylamino)ethyl)-2-morpholino-4-oxo-4H-chromene-6-carboxamide] | 3 |
| COCCN(C)C(=O)c1cc(C(C)Nc2cc(F)cc(F)c2)c2oc(N3CCOCC3)cc(=O)c2c1 (centres unmarked) [Example 4.24, 8-(1-(3,5-difluorophenylamino)ethyl)-N-(2-methoxyethyl)-N-methyl-2-morpholino-4-oxo-4H-chromene-6-carboxamide] | 4 |
| CC(Nc1cc(F)cc(F)c1)c1cc(C(=O)N2CCCOCC2)cc2c(=O)cc(N3CCOCC3)oc12 (centres unmarked) [Example 4.25, 8-(1-(3,5-difluorophenylamino)ethyl)-2-morpholino-6-(1,4-oxazepane-4-carbonyl)-4H-chromen-4-one] | 5 |
| COC1CCN(C(=O)c2cc(C(C)Nc3cc(F)cc(F)c3)c3oc(N4CCOCC4)cc(=O)c3c2)CC1 (centres unmarked) [Example 4.26, 8-(1-(3,5-difluorophenylamino)ethyl)-6-(4-methoxypiperidine-1-carbonyl)-2-morpholino-4H-chromen-4-one] | 4 |
| CC(c1cc(C(=O)N2CCC(O)CC2)cc2c(=O)cc(N3CCOCC3)oc12)N(C)c1cc(F)cc(F)c1 (centres unmarked) [Example 5.01, 8-(1-((3,5-difluorophenyl)(methyl)amino)ethyl)-6-(4-hydroxypiperidine-1-carbonyl)-2-morpholino-4H-chromen-4-one] | 8 |
| CC(c1cc(C(=O)N2CCC(O)C2)cc2c(=O)cc(N3CCOCC3)oc12)N(C)c1cc(F)cc(F)c1 (centres unmarked) [Example 5.02, 8-(1-((3,5-difluorophenyl)(methyl)amino)ethyl)-6-(3-hydroxypyrrolidine-1-carbonyl)-2-morpholino-4H-chromen-4-one] | 7 |
| CC(c1cc(C(=O)N2CCC[C@@H]2CO)cc2c(=O)cc(N3CCOCC3)oc12)N(C)c1cc(F)cc(F)c1 (stereo partly drawn) [Example 5.03, 8-(1-((3,5-difluorophenyl)(methyl)amino)ethyl)-6-((R)-2-(hydroxymethyl)pyrrolidine-1-carbonyl)-2-morpholino-4H-chromen-4-one] | 7 |
| CC(Nc1ccc(F)cc1)c1cc(C(=O)N(C)C)cc2c(=O)cc(N3CCO[C@H](C)C3)oc12 (stereo partly drawn) [Example 9.0, 8-(1-(4-fluorophenylamino)ethyl)-N,N-dimethyl-2-((R)-2-methylmorpholino)-4-oxo-4H-chromene-6-carboxamide] | 5 |
| CC(Nc1cc(F)cc(F)c1)c1cc(C(=O)N(C)C)cc2c(=O)cc(N3CCO[C@H](C)C3)oc12 (stereo partly drawn) [Example 9.01, 8-(1-(3,5-difluorophenylamino)ethyl)-N,N-dimethyl-2-((R)-2-methylmorpholino)-4-oxo-4H-chromene-6-carboxamide] | 4 |
| CC(Nc1cc(F)cc(F)c1)c1cc(C(=O)N(C)C)cc2c(=O)cc(N3CCO[C@@H](C)C3)oc12 (stereo partly drawn) [Example 9.02, 8-(1-(3,5-difluorophenylamino)ethyl)-N,N-dimethyl-2-((S)-2-methylmorpholino)-4-oxo-4H-chromene-6-carboxamide] | 11 |

Next, values leading:

| IC50 [nM] | Compound |
| --- | --- |
| 5 | CC(c1cc(C(=O)N2CCCC2)cc2c(=O)cc(N3CCOCC3)oc12)N(C)c1cc(F)cc(F)c1 (centres unmarked) [Example 6.0, 8-(1-((3,5-difluorophenyl)(methyl)amino)ethyl)-2-morpholino-6-(pyrrolidine-1-carbonyl)-4H-chromen-4-one] |
| 12 | CC(c1cc(C(=O)N(C)C)cc2c(=O)cc(N3CCO[C@H](C)C3)oc12)N(C)c1cc(F)cc(F)c1 (stereo partly drawn) [Example 10.01, 8-(1-((3,5-difluorophenyl)(methyl)amino)ethyl)-N,N-dimethyl-2-((R)-2-methylmorpholino)-4-oxo-4H-chromene-6-carboxamide] |
| 11 | CC(c1cc(C(=O)N(C)CCO)cc2c(=O)cc(N3CCO[C@H](C)C3)oc12)N(C)c1cc(F)cc(F)c1 (stereo partly drawn) [Example 10.02, 8-(1-((3,5-difluorophenyl)(methyl)amino)ethyl)-N-(2-hydroxyethyl)-N-methyl-2-((R)-2-methylmorpholino)-4-oxo-4H-chromene-6-carboxamide] |
| 9 | CC(c1cc(C(=O)N2CCC(O)CC2)cc2c(=O)cc(N3CCO[C@H](C)C3)oc12)N(C)c1cc(F)cc(F)c1 (stereo partly drawn) [Example 10.03, 8-(1-((3,5-difluorophenyl)(methyl)amino)ethyl)-6-(4-hydroxypiperidine-1-carbonyl)-2-((R)-2-methylmorpholino)-4H-chromen-4-one] |
| 21 | CC(Nc1cc(F)cc(F)c1)c1cc(C(=O)N(C)C)cc2c(=O)cc(N3CCOC[C@@H]3C)oc12 (stereo partly drawn) [Example 11.00, 8-(1-(3,5-difluorophenylamino)ethyl)-N,N-dimethyl-2-((S)-3-methylmorpholino)-4-oxo-4H-chromene-6-carboxamide] |

tested on: phospho AKT (ser473) in MAD-MB-468 cells; assay: Detection of phospho AKT (ser473) in MAD-MB-468 cells; assay type: cell-based, human; details: Homo sapiens; Test (b), approximate value; read-out: IC50 versus cellular phospho AKT (ser473) in MAD-MB-468 cells
Protocol: (b) Protocol for Detection of Phospho AKT (Ser473) in MAD-MB-468 Cells
MDA-MB-468 cells (human breast adenocarcinoma ATCC HTB 132) are seeded into Greiner 384 well black flat-bottomed plates by automated cell culture robot (Selec T). Cells can also be maintained manually and seeded into plates using multidrop or Wellmate. Cells seeded at 1500 cell/well in 40 μl of DMEN containing 10% FCS and 1% glutamine. Cell plates are incubated for 18 hours in a 37° C. incubator.
Compounds are dosed onto cells using an Echo acoustic dispenser, which dispenses nl quantities of compound or DMSO. Compounds are dosed in a 12 point concentration range from 30 μM top dose, 28 compounds are dosed on one plate. There are 17 DMSO only positive control wells per plate, and 16 negative control well which have been dosed with a concentration of reference compound that will knockout the pAKT signal.
Plates are incubated at 37° C. for 2 hours, cells are the fixed by the addition of 10 μl of a 3.7% Formaldehyde solution in a fume cupboard using a Wellmate.
After 30 minutes to allow for fixation, the fixative and media are removed and the plates washed with Proclin PBS/A using Tecan PW384 plate washer in a fume cupboard. Wells are blocked and permeabilised with the addition of 40 μl of PBS containing 0.5% Tween20 and 1% marvel using a Wellmate and incubated for 60 minutes at room temperature.
Permeabilisation and blocking buffer removed using Tecan PW384 plate washer, then 20 μl primary antibody solution added using a Wellmate. The primary antibody solution is a 1:500 dilution of Rabbit anti-phospho AKT Ser 473 (Cell signalling technologies catalogue number #3787) in PBS/T containing 1% marvel (dried milk powder) and incubated overnight at 4° C.
Plates are washed using a Tecan PW384 plate washer three times with Phosphate Buffered Saline+0.05% (v/v) Polysorbate20 and Proclin300 (Supelco). 20 μl of secondary antibody solution is then added to each well using a Wellmate and incubated for 1 hour at Room Temp. The secondary antibody solution is a 1:1000 dilution of Alexa Fluor 488 anti-Rabbit (Molecular Probes cat no A11008) diluted in Phosphate Buffered Saline+0.05% (v/v) Polysorbate20 containing 1% marvel. Plates are washed three times as before then 20 μl PBS added to each well and plates sealed with black plate sealer.
The plates are read on an Acumen reader as soon as possible. Using this system IC50 values can be generated and quality of plates determined by control wells. Reference compounds are run each time to monitor assay performance.

| IC50 [nM] | Compound |
| --- | --- |
| ~9 | CC(Nc1cc(F)cc(F)c1)c1cc(C(=O)N(C)C)cc2c(=O)cc(N3CCOCC3)oc12 (racemic) [Example 3.06, 8-(1-(3,5-difluorophenylamino)ethyl)-N,N-dimethyl-2-morpholino-4-oxo-4H-chromene-6-carboxamide] |
| ~15 | CC(c1cc(C(=O)N(C)C)cc2c(=O)cc(N3CCOCC3)oc12)N(C)c1cc(F)cc(F)c1 (single isomer, unassigned) [Example 5.0a, 8-(1-((3,5-difluorophenyl)(methyl)amino)ethyl)-N,N-dimethyl-2-morpholino-4-oxo-4H-chromene-6-carboxamide] |
| ~27 | CC(Nc1cc(F)c(F)c(F)c1)c1cc(C(=O)N(C)C)cc2c(=O)cc(N3CCOCC3)oc12 (centres unmarked) [Example 3.11, N,N-dimethyl-2-morpholino-4-oxo-8-(1-(3,4,5-trifluorophenylamino)ethyl)-4H-chromene-6-carboxamide] |

same assay, conditions: Homo sapiens; Test (b), mean IC50 value calculated from a larger number of replicates; read-out: IC50 versus cellular phospho AKT (ser473) in MAD-MB-468 cells (value in brackets)

| IC50 [nM] | Compound |
| --- | --- |
| ~3 | CC(Nc1cc(F)cc(F)c1)c1cc(C(=O)N(C)C)cc2c(=O)cc(N3CCOCC3)oc12 (single isomer, unassigned; (-)) [Example 3.06b, (−)-8-(1-(3,5-difluorophenylamino)ethyl)-N,N-dimethyl-2-morpholino-4-oxo-4H-chromene-6-carboxamide] |

same assay, conditions: Test (b), approximate value; read-out: IC50 versus cellular phospho AKT (ser473) in MAD-MB-468 cells

| IC50 [nM] | Compound |
| --- | --- |
| ~13500 | CC(Nc1cc(F)cc(F)c1)c1cc(C(=O)N(C)C)cc2c(=O)cc(N3CCOCC3)oc12 (single isomer, unassigned) [Example 3.06a, 8-(1-(3,5-difluorophenylamino)ethyl)-N,N-dimethyl-2-morpholino-4-oxo-4H-chromene-6-carboxamide] |
| ~5 | CC(Nc1cc(F)cc(F)c1)c1cc(C(=O)N(C)C)cc2c(=O)cc(N3CCOCC3)oc12 (single isomer, unassigned; (-)) [Example 3.06b, (−)-8-(1-(3,5-difluorophenylamino)ethyl)-N,N-dimethyl-2-morpholino-4-oxo-4H-chromene-6-carboxamide] |
